From patent US12344595B2, “2-amino-n-phenyl-nicotinamides as NAV1.8 inhibitors” (Merck Sharp & Dohme LLC, priority 2018, dated 2025) come the findings set out here.

Structures are written as SMILES.

In the assay the target is human Nav1.8 (Homo sapiens (Human), UniProt Q9Y5Y9). Description: Nav1.8 Qube automated patch-clamp assay. Type of assay: cell-based. Particulars: Nav1.8 Qube Assay; human Nav1.8 channels stably expressed in HEK 293 cells. In a few lines: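 Whole-cell automated patch clamp was run at room temperature on HEK293 cells stably expressing the channel. A 1 Hz, 10 s train of 20 ms pulses to 10 mV from −90 mV (repolarizing to −67 mV) was applied. Peak currents at the 1st and 10th pulses gave resting and inactivated-state IC50 values by Hill fit.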
Sequence of human Nav1.8 (Q9Y5Y9 whole entry): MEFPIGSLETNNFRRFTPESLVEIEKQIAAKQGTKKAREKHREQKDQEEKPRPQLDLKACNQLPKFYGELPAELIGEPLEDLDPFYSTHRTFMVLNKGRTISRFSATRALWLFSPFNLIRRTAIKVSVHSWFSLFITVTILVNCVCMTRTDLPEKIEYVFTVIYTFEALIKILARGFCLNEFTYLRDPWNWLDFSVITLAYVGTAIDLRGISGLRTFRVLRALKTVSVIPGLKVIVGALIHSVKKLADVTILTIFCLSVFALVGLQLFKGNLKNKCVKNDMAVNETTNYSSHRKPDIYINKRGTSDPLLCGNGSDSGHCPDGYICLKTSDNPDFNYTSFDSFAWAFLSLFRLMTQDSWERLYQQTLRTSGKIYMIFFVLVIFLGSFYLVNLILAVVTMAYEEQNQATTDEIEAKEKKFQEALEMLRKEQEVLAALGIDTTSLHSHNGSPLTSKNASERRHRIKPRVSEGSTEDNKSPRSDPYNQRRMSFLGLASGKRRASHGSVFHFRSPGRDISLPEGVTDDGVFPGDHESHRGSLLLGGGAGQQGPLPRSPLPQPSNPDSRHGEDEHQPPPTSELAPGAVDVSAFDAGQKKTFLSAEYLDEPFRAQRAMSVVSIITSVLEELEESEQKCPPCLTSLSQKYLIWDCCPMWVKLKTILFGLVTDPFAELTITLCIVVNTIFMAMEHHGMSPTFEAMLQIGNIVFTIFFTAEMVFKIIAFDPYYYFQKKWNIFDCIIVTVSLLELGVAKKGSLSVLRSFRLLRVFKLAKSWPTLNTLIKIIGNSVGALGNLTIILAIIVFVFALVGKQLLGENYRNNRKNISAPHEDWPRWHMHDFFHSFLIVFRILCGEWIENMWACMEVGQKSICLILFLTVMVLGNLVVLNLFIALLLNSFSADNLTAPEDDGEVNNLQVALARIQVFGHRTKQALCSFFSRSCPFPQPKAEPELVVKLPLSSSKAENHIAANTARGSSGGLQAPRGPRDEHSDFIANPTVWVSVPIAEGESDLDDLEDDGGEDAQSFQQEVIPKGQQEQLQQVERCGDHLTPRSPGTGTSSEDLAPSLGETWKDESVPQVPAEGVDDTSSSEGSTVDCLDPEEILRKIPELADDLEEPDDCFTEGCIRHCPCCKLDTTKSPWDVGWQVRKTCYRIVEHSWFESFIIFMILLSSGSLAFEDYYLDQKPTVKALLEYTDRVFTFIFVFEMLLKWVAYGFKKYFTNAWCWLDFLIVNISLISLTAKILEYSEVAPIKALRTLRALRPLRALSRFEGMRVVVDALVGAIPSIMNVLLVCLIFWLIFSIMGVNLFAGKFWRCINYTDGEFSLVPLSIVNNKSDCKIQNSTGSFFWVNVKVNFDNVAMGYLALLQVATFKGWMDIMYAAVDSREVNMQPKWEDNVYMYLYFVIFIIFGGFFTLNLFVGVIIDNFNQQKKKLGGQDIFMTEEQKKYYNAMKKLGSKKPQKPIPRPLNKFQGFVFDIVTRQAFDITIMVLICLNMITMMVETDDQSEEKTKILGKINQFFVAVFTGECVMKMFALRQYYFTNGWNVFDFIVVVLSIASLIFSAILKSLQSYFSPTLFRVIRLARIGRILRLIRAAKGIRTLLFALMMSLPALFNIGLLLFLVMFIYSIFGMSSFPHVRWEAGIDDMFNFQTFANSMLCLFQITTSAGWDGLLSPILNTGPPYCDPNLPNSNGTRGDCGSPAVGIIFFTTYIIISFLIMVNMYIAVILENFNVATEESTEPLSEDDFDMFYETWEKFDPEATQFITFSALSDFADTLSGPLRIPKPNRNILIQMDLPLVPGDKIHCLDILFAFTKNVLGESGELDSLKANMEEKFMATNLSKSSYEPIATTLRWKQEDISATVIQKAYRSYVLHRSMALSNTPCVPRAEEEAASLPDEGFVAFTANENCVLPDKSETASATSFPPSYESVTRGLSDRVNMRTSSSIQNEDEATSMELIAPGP
For `NS(=O)(=O)c1cccc(NC(=O)c2cc(C3CCC3)cnc2N2CCCC(F)(F)CC2)c1` [Example 159, 5-cyclobutyl-2-(4,4-difluoroazepan-1-yl)-N-(3-sulfamoylphenyl)nicotinamide], half-maximal inhibition (IC50) required 2.5 nM.

In turn, `NS(=O)(=O)c1cccc(NC(=O)c2cc(C3COC3)cnc2N2CCCC(F)(F)CC2)c1` [Example 160, 2-(4,4-difluoroazepan-1-yl)-5-(oxetan-3-yl)-N-(3-sulfamoylphenyl)nicotinamide] registered an IC50 of 681 nM.

In turn, `C=CCCc1cnc(N2CCCC(F)(F)CC2)c(C(=O)Nc2cccc(S(N)(=O)=O)c2)c1` [Example 161, 5-(but-3-en-1-yl)-2-(4,4-difluoroazepan-1-yl)-N-(3-sulfamoylphenyl)nicotinamide] yielded an IC50 of 3.2 nM.

Molecule `CC(C)c1cnc(N2CCCC(F)(F)CC2)c(C(=O)Nc2cccc(S(N)(=O)=O)c2)c1` [Example 162, 2-(4,4-difluoroazepan-1-yl)-5-isopropyl-N-(3-sulfamoylphenyl)nicotinamide] registered an IC50 of 7.1 nM.

Regarding `NS(=O)(=O)c1cccc(NC(=O)c2cc(C3CC3)cnc2N2CCCC(F)(F)CC2)c1` [Example 163, 5-cyclopropyl-2-(4,4-difluoroazepan-1-yl)-N-(3-sulfamoyl-phenyl)nicotinamide], the IC50 amounted to 7.3 nM.

The molecule `NS(=O)(=O)c1cccc(NC(=O)c2cc(C(F)(F)C(F)(F)F)cnc2N2CCCCCC2)c1` [Example 164, 2-(azepan-1-yl)-5-(perfluoroethyl)-N-(3-sulfamoylphenyl)nicotinamide] came in with an IC50 of 15 nM.

`NS(=O)(=O)c1cccc(NC(=O)c2ccc(C(F)(F)C(F)(F)F)nc2N2CCCCC2)c1` [Example 165, 6-(1,1,2,2,2-pentafluoroethyl)-2-(1-piperidyl)-N-(3-sulfamoylphenyl) pyridine-3-carboxamide] had an IC50 of 342 nM.

Turning to `CS(=O)(=O)c1cccc(NC(=O)c2cc(C(F)(F)C(F)(F)F)cnc2N2CCCCCC2)c1` [Example 166, 2-(azepan-1-yl)-N-(3-methylsulfonylphenyl)-5-(1,1,2,2,2-penta-fluoroethyl)pyridine-3-carboxamide], the midpoint of inhibition, the IC50, lay at 30 nM.

Molecule `NC(=O)c1cccc(NC(=O)c2cc(C(F)(F)C(F)(F)F)cnc2N2CCCCCC2)c1` [Example 167, 2-(azepan-1-yl)-N-(3-carbamoylphenyl)-5-(1,1,2,2,2-penta-fluoroethyl)pyridine-3-carboxamide] displayed an IC50 of 85 nM.

Regarding `Cc1nc(N2CCCCCC2)c(C(=O)Nc2cccc(S(N)(=O)=O)c2)cc1C(F)(F)F` [Example 168, 2-(azepan-1-yl)-6-methyl-N-(3-sulfamoylphenyl)-5-(trifluoromethyl)nicotinamide], half-maximal inhibition (IC50) required 3.2 nM.

Take `COc1nc(N2CCCCCC2)c(C(=O)Nc2cccc(S(N)(=O)=O)c2)cc1C(F)(F)F` [Example 169, 2-(azepan-1-yl)-6-methoxy-N-(3-sulfamoylphenyl)-5-(trifluoromethyl)nicotinamide]: half-maximal inhibition (IC50) required 42 nM.

With `NS(=O)(=O)c1cccc(NC(=O)c2cc(C(F)(F)F)cnc2N2CCC(F)(F)CC2)c1F` [Example 170, 2-(4,4-difluoropiperidin-1-yl)-N-(2-fluoro-3-sulfamoylphenyl)-5-(trifluoromethyl)nicotinamide], the IC50 was found to be 119 nM.

As to `NS(=O)(=O)c1cc(NC(=O)c2cc(C(F)(F)F)cnc2N2CCC(F)(F)CC2)cc(F)c1F` [Example 171, N-(3,4-difluoro-5-sulfamoylphenyl)-2-(4,4-difluoropiperidin-1-yl)-5-(trifluoro-methyl)nicotinamide], the IC50 was determined as 137 nM.

For `NS(=O)(=O)c1cccc(NC(=O)c2cc(OC(F)F)cnc2N2CCCC(F)(F)CC2)c1` [Example 172, 2-(4,4-difluoroazepan-1-yl)-5-(difluoromethoxy)-N-(3-sulfamoylphenyl)nicotinamide], the IC50 amounted to 7.5 nM.

`CS(=O)(=O)c1cccc(NC(=O)c2cc(Cl)cnc2N2CCCC(F)(F)CC2)c1` [Example 173, 5-chloro-2-(4,4-difluoroazepan-1-yl)-N-(3-(methylsulfonyl)phenyl)nicotinamide] gave an IC50 of 7.8 nM.

`Cc1c(Cl)nc(N2CCCCCC2)c(C(=O)Nc2cccc(S(N)(=O)=O)c2)c1C` [Example 174, 2-(azepan-1-yl)-6-chloro-4,5-dimethyl-N-(3-sulfamoylphenyl)-pyridine-3-carboxamide]: the IC50 amounted to 6 nM.

With `Cc1ccnc(N2CCCCCC2)c1C(=O)Nc1cccc(S(N)(=O)=O)c1` [Example 175, 2-(azepan-1-yl)-4-methyl-N-(3-sulfamoyl-phenyl)pyridine-3-carboxamide], the half-inhibitory concentration (IC50) was 290 nM.

`Cc1nc(N2CCCC(F)(F)CC2)c(C(=O)Nc2cccc(S(C)(=O)=O)c2)cc1C#N` [Example 176, 5-cyano-2-(4,4-difluoroazepan-1-yl)-6-methyl-N-(3-methyl-sulfonylphenyl) pyridine-3-carboxamide]: 7.3 nM corresponded to half-maximal inhibition (IC50).

`Cc1nc(N2CCCC(F)(F)CC2)c(C(=O)Nc2cccc(C(N)=O)c2)cc1C#N` [Example 177, N-(3-carbamoylphenyl)-5-cyano-2-(4,4-difluoroazepan-1-yl)-6-methyl-pyridine-3-carboxamide] registered an IC50 of 28 nM.

`Cc1nc(N2CCCCCC2)c(C(=O)Nc2cccc(C(N)=O)c2)cc1C#N` [Example 178, 2-(azepan-1-yl)-N-(3-carbamoylphenyl)-5-cyano-6-methyl-pyridine-3-carboxamide] returned an IC50 of 54 nM.

`Cc1nc(N2CCCC(F)(F)CC2)c(C(=O)N(C)c2cccc(S(N)(=O)=O)c2)c(C)c1Cl` [Example 179, 5-chloro-2-(4,4-difluoroazepan-1-yl)-N,4,6-trimethyl-N-(3-sulfamoylphenyl)nicotinamide]: the IC50 was found to be 873 nM.

With `NS(=O)(=O)c1cccc(NC(=O)c2cnc(C3CC3)nc2N2CCCC(F)(F)CC2)c1` [Example 180, 2-cyclopropyl-4-(4,4-difluoroazepan-1-yl)-N-(3-sulfamoylphenyl)pyrimidine-5-carboxamide], inhibition was half-maximal at 24 nM (IC50).

Take `NS(=O)(=O)c1cccc(NC(=O)c2cc(C(F)(F)F)nnc2N2CCCC(F)(F)CC2)c1` [Example 181, 3-(4,4-difluoroazepan-1-yl)-N-(3-sulfamoylphenyl)-6-(trifluoromethyl)pyridazine-4-carboxamide]: the midpoint of inhibition, the IC50, lay at 70 nM.
